Laboratory results: article PMC4128710 (Biochemical pharmacology, 2014)

Columns and labels:
A1 and A3 ARs = assay: Inhibition of forskolin-stimulated cAMP accumulation
mouse A2BAR [1] = molecular target: T1, mouse A2BAR (Mus musculus, UniProt Q60614); assay: β-Arrestin2 translocation in PathHunter CHO cells
T1 sequence (Q60614 1-332): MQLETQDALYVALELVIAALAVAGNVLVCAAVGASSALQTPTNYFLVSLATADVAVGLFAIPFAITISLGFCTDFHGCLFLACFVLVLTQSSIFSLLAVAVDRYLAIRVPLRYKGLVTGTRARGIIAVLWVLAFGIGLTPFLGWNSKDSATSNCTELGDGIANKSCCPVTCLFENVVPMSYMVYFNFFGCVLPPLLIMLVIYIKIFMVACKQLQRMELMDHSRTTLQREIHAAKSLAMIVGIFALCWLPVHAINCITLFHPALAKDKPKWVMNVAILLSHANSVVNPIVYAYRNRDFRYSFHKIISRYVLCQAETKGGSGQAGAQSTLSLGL

A2BAR [2] = molecular target: T2, A2BAR (Homo sapiens, UniProt P29275); assay: Intracellular calcium mobilization in HEK293 cells overexpressing the A2BAR; details: HEK293 cells overexpressing A2BAR
T2 sequence (P29275 1-332): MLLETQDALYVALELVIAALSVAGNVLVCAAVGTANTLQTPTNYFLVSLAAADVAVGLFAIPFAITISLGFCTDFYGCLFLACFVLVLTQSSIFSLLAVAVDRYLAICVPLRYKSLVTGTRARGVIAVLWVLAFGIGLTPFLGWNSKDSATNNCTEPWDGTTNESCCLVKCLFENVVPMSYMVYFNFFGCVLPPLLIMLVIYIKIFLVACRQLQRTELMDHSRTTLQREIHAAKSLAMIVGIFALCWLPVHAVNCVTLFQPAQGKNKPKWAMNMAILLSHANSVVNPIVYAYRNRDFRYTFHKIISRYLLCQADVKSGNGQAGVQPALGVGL

A2BAR [3] = molecular target: T2, A2BAR; assay: Intracellular calcium mobilization in T24 cells; details: T24 cells
A2BAR [4] = molecular target: T2, A2BAR; assay: cAMP accumulation in HEK293 cells overexpressing the A2BAR; details: HEK293 cells overexpressing A2BAR
A2BAR [5] = molecular target: T2, A2BAR; assay: ERK1/2 phosphorylation in T24 cells; details: T24 cells
A2BAR [6] = molecular target: T2, A2BAR; assay: ERK1/2 phosphorylation in HEK293 cells overexpressing the A2BAR; details: HEK293 cells overexpressing A2BAR
A2BAR [7] = molecular target: T2, A2BAR; assay: ERK1/2 phosphorylation in HEK293 cells; details: HEK293 cells, endogenous A2BAR
A2BAR [8] = molecular target: T2, A2BAR; assay: Intracellular calcium mobilization in HEK293 cells; details: HEK293 cells, endogenous A2BAR
A2BAR [9] = molecular target: T2, A2BAR; assay: cAMP accumulation in T24 cells endogenously expressing the A2BAR; details: T24 cells
A2BAR [10] = molecular target: T2, A2BAR; assay: cAMP accumulation in HEK293 cells endogenously expressing the A2BAR; details: HEK293 cells, endogenous A2BAR
A2BAR [11] = assay: cAMP accumulation in COS-7 cells endogenously expressing the A2BAR
mouse A2BAR [12] = assay: β-Arrestin2 translocation in PathHunter CHO cells; details: β-Arrestin versus cAMP; bias ≫1 disfavors the pathway
[13] = system: MIN-6 mouse pancreatic β cells; assay: Insulin release in MIN6 cells; assay type: cell-based; details: MIN-6 cells, 16.7 mM glucose, 1 h
[14] = PathHunter CHO cells, mouse A2BAR

SMILES: OC[C@H]1O[C@@H](n2cnc3c(NC4CCCC4)ncnc32)[C@H](O)[C@@H]1O [CPA, N^6-cyclopentyladenosine]
- inhibition of forskolin-stimulated cAMP accumulation (A1 and A3 ARs): inactive

SMILES: Nc1ncnc2c1ncn2[C@@H]1O[C@H](C(=O)NC2CC2)[C@@H](O)[C@H]1O [CPCA, adenosine-5′-N-cyclopropyluronamide]
- Max effect β-arrestin (% of effect of NECA) (mouse A2BAR [1]; [14]): 109 ±9%
- EC50 (mouse A2BAR [1]; read-out: EC50 β-arrestin, PathHunter CHO cells, mouse A2BAR): 5.06 ± 1.41 µM
- Max effect Calcium (% of effect of NECA) (A2BAR [2]): 102 ±4%
- EC50 (A2BAR [2]; read-out: EC50 Calcium): 1490 ± 360 nM
- Max effect Calcium (% of effect of NECA) (A2BAR [3]): 101 ±7%
- EC50 (A2BAR [3]; read-out: EC50 Calcium): 1930 ± 680 nM
- Max effect cAMP (% of effect of NECA) (A2BAR [4]): 98.9 ±6.6%
- EC50 (A2BAR [4]; read-out: EC50 cAMP): 32.8 ± 4.2 nM
- ERK1/2 stimulation relative to basal value (A2BAR [5]): ≤ 2 fold
- Max effect ERK1/2 (% of effect of NECA) (A2BAR [5]): 101 ±8%
- EC50 (A2BAR [5]; read-out: EC50 ERK1/2): 369 ± 32 nM
- Max effect ERK1/2 (% of effect of NECA) (A2BAR [6]): 100 ±6%
- EC50 (A2BAR [6]; read-out: EC50 ERK1/2): 1860 ± 240 nM
- Max effect ERK1/2 (% of effect of NECA) (A2BAR [7]): 99.3 ±2.4%
- EC50 (A2BAR [7]; read-out: EC50 ERK1/2): 1030 ± 230 nM
- Max effect Calcium (% of effect of NECA) (A2BAR [8]): 98.7 ±6.6%
- EC50 (A2BAR [8]; read-out: EC50 Calcium): 2620 ± 460 nM
- Max effect cAMP (% of effect of NECA) (A2BAR [9]; NECA = 100%): 98.5 ±1.9%
- EC50 (A2BAR [9]; read-out: EC50 cAMP): 177 ± 67 nM
- Max effect cAMP (% of effect of NECA) (A2BAR [10]): 102 ±9%
- EC50 (A2BAR [10]; read-out: EC50 cAMP): 267 ± 32 nM

SMILES: C[C@H](Cc1ccccc1)Nc1ncnc2c1ncn2[C@@H]1O[C@H](CO)[C@@H](O)[C@H]1O [R-PIA, R-N^6-(phenylisopropyl)adenosine]
- Max effect β-arrestin (% of effect of NECA) (mouse A2BAR [1]; [14]): 13.2 ±1.1%

SMILES: CCNC(=O)[C@H]1O[C@@H](n2cnc3c(N)ncnc32)[C@H](O)[C@@H]1O [NECA, adenosine-5′-N-ethyluronamide]
- Bias (mouse A2BAR [12]): 1.00
- Max effect β-arrestin (% of effect of NECA) (mouse A2BAR [1]; [14]): 100%
- τ (mouse A2BAR [1]; β-Arrestin pathway, operational model, CHO mouse A2BAR): 38.9

SMILES: CCCn1c(=O)[nH]c2nc(-c3ccc(S(=O)(=O)N4CCN(c5ccc(Cl)cc5)CC4)cc3)[nH]c2c1=O [PSB603]
- Glucose stimulated insulin secretion [13]: induced insulin secretion

SMILES: CNC(=O)[C@H]1O[C@@H](n2cnc3c(NCc4cccc(I)c4)nc(Cl)nc32)[C@H](O)[C@@H]1O [Cl-IB-MECA]
- inhibition of forskolin-stimulated cAMP accumulation (A1 and A3 ARs): inactive
